We go through 5 molecules from PMC6263107 (Journal of Enzyme Inhibition and Medicinal Chemistry, 2018).

Data set [1] is described as follows: Oxygen radical absorbance capacity assay (ORAC-FL). As to conditions: for ORAC: ORAC-FL, Trolox equivalents. As for the experimental part:
The antioxidant activity of KTs was determined using the ORAC-FL method described by Dávalos et al.[30] using fluorescein as a fluorescent probe with minor modification. Briefly, fluorescein and antioxidant were incubated in a black 96-well microplate (Nunc) for 15 min at 37 °C. The 2,2’-azobis(amidinopropane) dihydrochloride (AAPH) was then added quickly using the built-in injector of Varioskan Flash plate reader (Thermo Scientific).
Results are expressed in the Trolox equivalents (TE) unit in relation to radical scavenging properties of Trolox.

In data set [2] the test system is SH-SY5Y cells. Description: Neuroprotection against oligomycin/rotenone-induced cell death (MTT). Type of data set: cell-based, human. As to conditions: O 10 µM / R 30 µM. On the procedure: (§1) SH-SY5Y cell culture and treatment with compounds 2b–d and 2f. The cultures of human SH-SY5Y neuroblastoma cells kept under a CO2/air (5%/95%) humidified atmosphere at 37 °C for 24 h were treated with 100 µl of the test compounds or DMSO (0.1%) in DMEM/F12 (1:1) medium supplemented with 1% fetal bovine serum, 1X non-essential amino acids, 100 units/ml penicillin and 10 mg/ml streptomycin. Treatment medium was renewed every day for up to 48 h of treatment. MTT assay was then performed.
(§2) SH-SY5Y cells were seeded in 96-well culture plates at a density of 8 × 10^4 cells per well in DMEM/F12 (1:1) medium supplemented with 10% fetal bovine serum, 1X non-essential amino acids, 100 units/mL penicillin and 10 mg/mL streptomycin (Dutscher, France). After 24 h of incubation, the cultures were treated with 100 µl of the test compounds or DMSO (0.1%) in the same medium. Following 24 h, the cells were co-incubated with oligomycin A (10 µM)/rotenone (30 µM) (Sigma, France) or Aβ 1–40 (30 µM) with or without the tested compounds 2b–d and 2f at nontoxic concentrations against cells for an additional period of 24 h. MTT assay was then performed to determine the % of cell viability.
(§3) The ability to prevent the human neuroblastoma cell line SH-SY5Y cell death induced by toxic insults such as Αβ 1–40, implicated in ROS production and apoptosis-related signalling pathways, and oligomycin/rotenone (O/R)[39], was then assayed to determine the neuroprotective capacity of the four less hepatotoxic KTs 2b–d and 2f at nontoxic concentration against SH-SY5Y 3 and 10 µM, using melatonin and KA as reference molecules. For the evaluation of the neuroprotective effect, the cytotoxicity of O/R (10 µM/30 µM) on SH-SY5Y cell viability was determined as well as the toxicity of the selected KTs 2b–d and 2f at.

The test system of data set [3] is SH-SY5Y cells. Description: Neuroprotection against Aβ1–40 peptide-induced cell death (MTT). Type of data set: cell-based, human. As to conditions: for Aβ1–40 (%) neuroprotection: Aβ 1–40 30 µM. On the procedure:
as §1, §2, §3

Data set [4] has as its system SH-SY5Y cells. Description: Neuroprotection against oligomycin/rotenone-induced cell death (MTT). Type of data set: cell-based, human. The settings on record: compound 1 µM; O 10 µM / R 30 µM.
Data set [5] has as its system SH-SY5Y cells. Put plainly: Neuroprotection against Aβ1–40 peptide-induced cell death (MTT). The settings on record: compound 1 µM; Aβ 1–40 30 µM. Type of data set: cell-based, human.
Another data set in a line: in vitro. The class given is cell-based. As to conditions: human, HepG2 cells, percent of cell viability vs DMSO-treated control, read-out: HepG2 cell viability. As for the experimental part:
(§4) The culture medium was refreshed after 24 h of incubation and 100 µl of six different concentrations (1–1000 µM) of test compounds or DMSO (0.1%) were then added. The cell viability was monitored by colourimetric assay with 3-[4,5-dimethylthiazol-2-yl]-2,5-diphenyl-tetrazolium bromide (MTT).
(§5) In this sense, all new KTs were submitted to the in vitro cell viability test (MTT assay) using human hepatocellular carcinoma cell line (HepG2)[26], as the most accepted probe to evaluate hepatotoxic effects. For this experiment, six different concentrations from 1 to 1000 µM were used.

A further data set relates to HepG2 cells. Description: in vitro. Type of data set: cell-based. On the procedure:
as §4, §5

A further data set has as its target EeAChE (Electrophorus electricus, UniProt O42275). Description: biochemical. The settings on record: for IC50: mean ± SEM. As for the experimental part: (§6) Ellman’s protocol was followed to perform the anticholinesterasic activity. Briefly, the reaction was carried out in a final volume of 3 ml of a phosphate-buffered solution (0.1 M) at pH =8.0 containing (2.625 µl, 0.35 mM) of 5,5’-dithiobis-2-nitrobenzoic acid (DTNB), 40 µl 1% w/v Bovine Albumin Serum phosphate-buffered solution (BSA), (29 µl, 0.035 U/ml) of EeAChE or (60 µl, 0.05 U/ml) of eqBuChE, and 3 µl of tested compound, which were incubated for 10 min. Then, the acetylthiocholine iodide or butyrylthiocholine was added, and the reaction was incubated for additional 15 min. The activity in absence of compound was used as control.

In the next data set the target is T1, eqBuChE (Equus caballus, UniProt P81908).
T1 construct: serum horse BuChE (eqBuChE); from tissue; host or cells: horse serum
T1 sequence (P81908 whole entry): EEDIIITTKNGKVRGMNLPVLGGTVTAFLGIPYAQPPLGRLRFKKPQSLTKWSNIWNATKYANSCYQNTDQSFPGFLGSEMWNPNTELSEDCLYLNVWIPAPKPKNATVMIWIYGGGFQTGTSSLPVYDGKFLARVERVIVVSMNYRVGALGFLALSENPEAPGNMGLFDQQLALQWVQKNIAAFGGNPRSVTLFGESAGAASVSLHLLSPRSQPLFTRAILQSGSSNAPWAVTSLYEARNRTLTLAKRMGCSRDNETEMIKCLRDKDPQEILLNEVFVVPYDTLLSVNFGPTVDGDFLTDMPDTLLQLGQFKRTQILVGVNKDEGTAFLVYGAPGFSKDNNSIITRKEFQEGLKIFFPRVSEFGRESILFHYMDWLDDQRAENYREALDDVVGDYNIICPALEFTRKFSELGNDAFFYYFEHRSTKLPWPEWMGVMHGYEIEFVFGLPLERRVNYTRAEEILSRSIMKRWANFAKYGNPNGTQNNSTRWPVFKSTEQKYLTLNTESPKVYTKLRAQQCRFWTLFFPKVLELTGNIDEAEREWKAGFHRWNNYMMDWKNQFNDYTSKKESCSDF
Description: biochemical. The settings on record: for IC50: mean ± SEM. On the procedure:
as §6

In a further data set the target is T2, hAChE (Homo sapiens, UniProt P22303).
T2 construct: 10 µl of cholinesterase obtained from human erythrocyte hemolyzate, out of blood samples; from tissue; host or cells: human erythrocyte hemolysate from blood samples
T2 sequence (P22303 32-617 isoform P22303-2 limits assumed): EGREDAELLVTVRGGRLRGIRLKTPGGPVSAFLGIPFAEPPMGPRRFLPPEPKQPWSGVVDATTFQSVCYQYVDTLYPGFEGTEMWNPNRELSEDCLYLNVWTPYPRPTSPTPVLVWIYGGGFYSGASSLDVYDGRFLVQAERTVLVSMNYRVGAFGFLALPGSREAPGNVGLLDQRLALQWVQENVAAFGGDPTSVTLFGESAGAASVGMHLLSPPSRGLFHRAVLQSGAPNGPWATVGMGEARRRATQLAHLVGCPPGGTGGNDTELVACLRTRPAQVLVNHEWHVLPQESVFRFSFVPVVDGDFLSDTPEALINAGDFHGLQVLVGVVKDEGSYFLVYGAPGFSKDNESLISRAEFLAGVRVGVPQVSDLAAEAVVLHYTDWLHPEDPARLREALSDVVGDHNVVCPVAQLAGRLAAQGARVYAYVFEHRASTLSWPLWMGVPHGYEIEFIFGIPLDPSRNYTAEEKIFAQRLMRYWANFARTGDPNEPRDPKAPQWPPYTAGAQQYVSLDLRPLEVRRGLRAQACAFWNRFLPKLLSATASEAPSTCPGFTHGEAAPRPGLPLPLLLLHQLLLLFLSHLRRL
Put plainly: biochemical. As to conditions: for IC50: mean ± SEM. On the procedure: This blend was preincubated for 5 min and 20 µl of 0.01 M substrate (ATCh or BTCh) was added to initiate the reaction. […] The IC50 values are expressed as a mean ± SEM.
Next, as planned at the beginning of the project, the analysis of the antioxidant capacity of KT 2a–d, 2f–h, and 2l was carried out.

In data set [6] the test system is SH-SY5Y cells. Put plainly: Toxicity of compounds on SH-SY5Y cells (MTT). The class given is cell-based. As to conditions: at 10 µM. As for the experimental part:
as §1

Data set [7] concerns SH-SY5Y cells. Also on record: method as in PMID 27736061. The settings on record: O 10 µM / R 30 µM, cited from earlier work.
In data set [8] the test system is SH-SY5Y cells. Further details: method as in PMID 27736061. As to conditions: Aβ 1–40 30 µM, cited from earlier work.

Several values for one entry are separate records, joined by “and”; a condition that tells them apart may be missing. Identical values can stand only once. Like-named read-outs stand apart in the source and are kept apart here. Some results are limits rather than exact numbers.

Chain of EeAChE (O42275 24-633): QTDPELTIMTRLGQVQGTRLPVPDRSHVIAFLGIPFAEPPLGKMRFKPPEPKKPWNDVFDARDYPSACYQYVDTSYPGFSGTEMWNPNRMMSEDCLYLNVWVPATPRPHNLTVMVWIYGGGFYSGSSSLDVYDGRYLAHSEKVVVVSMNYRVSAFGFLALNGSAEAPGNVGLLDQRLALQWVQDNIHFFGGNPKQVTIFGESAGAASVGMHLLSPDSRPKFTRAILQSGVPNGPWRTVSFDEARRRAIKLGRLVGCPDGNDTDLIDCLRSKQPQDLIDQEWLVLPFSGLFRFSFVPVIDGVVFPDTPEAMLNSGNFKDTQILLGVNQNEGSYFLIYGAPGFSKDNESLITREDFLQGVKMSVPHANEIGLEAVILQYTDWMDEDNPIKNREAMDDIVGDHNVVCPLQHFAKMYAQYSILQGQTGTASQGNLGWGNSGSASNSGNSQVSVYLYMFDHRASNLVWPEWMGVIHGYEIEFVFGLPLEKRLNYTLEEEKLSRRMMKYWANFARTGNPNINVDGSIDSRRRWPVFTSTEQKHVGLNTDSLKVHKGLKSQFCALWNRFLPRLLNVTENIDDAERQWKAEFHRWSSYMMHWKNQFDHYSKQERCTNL

Take `O=c1cc(CO)occ1O` [KA, kojic acid, reference compound]: the ORAC in [1] is 2.51 TE and 2.51 ± 0.17 TE. The “O/R (%) neuroprotection” value in the data set on SH-SY5Y cells [2] (compound 3 µM) and with SH-SY5Y cells [4] was “np” each time. Moreover, the “Aβ1–40 (%) neuroprotection” value with SH-SY5Y cells [3] (compound 3 µM) is 65.11 ± 0.20 %; in the data set on SH-SY5Y cells [5], 51.56 ± 0.18 %.

As usually defined, the viability is a read-out of living cells in per cent, often relative to untreated cells. One may read the IC50 as the concentration needed to halve the response being measured. In the case of `Cc1ccc(C2c3oc(CO)cc(=O)c3Oc3nc4c(c(N)c32)CCCC4)cc1` (centres unmarked) [KT2b], in “in vitro”, the viability at 1 µM is 105 ± 3.1%, the viability at 3 µM is 110 ± 3.2%, the viability at 10 µM turned out to be 105 ± 1.9% and the viability at 30 µM was found to be 107 ± 2.9%. Also, in the data set “in vitro”, the viability at 100 µM was 113 ± 8.4%, the viability at 300 µM was 108 ± 5.7% and the viability at 1000 µM came out at 87.9 ± 5.2%. The “HepG2 toxicity” value in the data set on HepG2 cells (concentrations up to 1000 µM) is “no significant toxicity”. On EeAChE, this molecule registered a half-maximal inhibitory concentration (IC50) of 1.4 µM. The same molecule showed a half-inhibitory concentration (IC50) against eqBuChE of 10.09 ± 0.09 µM. At hAChE, this molecule yielded a concentration for half-maximal inhibition (IC50) of 13.7 ± 1.7 µM. Also, in [1], the ORAC is 2.96±0.18 TE. Besides, in the data set with SH-SY5Y cells [2] (compound 3 µM), the “O/R (%) neuroprotection” value was 19.66 ± 0.07%. Moreover, the “O/R (%) neuroprotection” value in the data set with SH-SY5Y cells [2] (compound 10 µM) worked out at 3.65 ± 0.07%. The “Aβ1–40 (%) neuroprotection” value in the data set on SH-SY5Y cells [3] (compound 3 µM) was determined as 27.85 ± 0.15 %. In the data set with SH-SY5Y cells [3] (compound 10 µM), the “Aβ1–40 (%) neuroprotection” value is “np”. In addition, the “neuroprotective activity” value in the data set on SH-SY5Y cells [3] (on any of the toxic insults investigated (O/R, Aβ 1–40)) is on record as “very poor neuroprotective activity”.

Usually inhibition stands for the share of the control response that was lost under treatment. Consider `COc1cccc(C2c3oc(CO)cc(=O)c3Oc3nc4c(c(N)c32)CCCC4)c1` (centres unmarked) [KT2d, 11-amino-2-(hydroxymethyl)-12-(3-methoxyphenyl)-7,9,10,12-tetrahydropyrano [2',3':5,6] pyrano[2,3-b]quinolin-4(8H)-one], for which, in the data set “in vitro”, the viability at 1 µM turned out to be 101 ± 2.5%, the viability at 3 µM came out at 98 ± 4.1%, the viability at 10 µM is 102 ± 3.2% and the viability at 30 µM is 102 ± 1.8%. In addition, in “in vitro”, the viability at 100 µM came to 99 ± 1.1%, the viability at 300 µM amounted to 87.2 ± 6.1% and the viability at 1000 µM came to 65.5 ± 1.3%. Besides, the “fold less toxic than tacrine (HepG2)” value in the data set on HepG2 cells (at 1000 µM) is “six-fold less-hepatotoxic than tacrine”. Also, it took 0.64 ± 0.06 µM to reach half-maximal inhibition against EeAChE (IC50). Besides, the “fold less active than tacrine (EeAChE)” value at EeAChE (ratio of IC50 values vs tacrine) was “approximately 20 fold”. Moreover, the inhibition at 10 µM against eqBuChE (at 10 μM, Table 2 footnote b) was below 50%. At hAChE, this molecule registered an IC50 of 4.52 ± 0.24 µM. The ORAC in data set [1] came to 4.79 TE. For the same molecule, the ORAC in [1] (listed as 2d) came to 4.79±0.39 TE. Further, in data set [1] (vs ferulic acid), the “fold more potent than FA (ORAC)” value stood at 1.3 fold. Further, the “O/R (%) neuroprotection” value with SH-SY5Y cells [2] (compound 3 µM) is given as 24.35 ± 0.05 %. Moreover, the “O/R (%) neuroprotection” value in the data set with SH-SY5Y cells [2] (compound 10 µM) is on record as 12.53 ± 0.09%. The “neuroprotection against Aβ 1–40” value in the data set with SH-SY5Y cells [3] (at 3 µM and 10 µM) is “significant and similar neuroprotection”. The “Aβ1–40 (%) neuroprotection” value in the data set on SH-SY5Y cells [3] (compound 3 µM) was determined as 42.92 ± 0.20 %. Moreover, the “Aβ1–40 (%) neuroprotection” value with SH-SY5Y cells [3] (compound 10 µM) stood at 41.19 ± 0.18 %. Also, in the data set with SH-SY5Y cells [6], the “toxicity for SH-SY5Y cells” value is reported as “nontoxic”.

On to `Nc1c2c(nc3c1C(c1ccccc1F)c1oc(CO)cc(=O)c1O3)CCCC2` (centres unmarked) [KT2f], for which, in “in vitro”, the viability at 1 µM stood at 108 ± 6.2%, the viability at 3 µM turned out to be 96.1 ± 2.5%, the viability at 10 µM amounted to 99.2 ± 2.8% and the viability at 30 µM came to 102 ± 7.1%. In the data set “in vitro”, the viability at 100 µM was 101 ± 9.2%, the viability at 300 µM was 95.3 ± 4.1% and the viability at 1000 µM worked out at 64 ± 8%. Besides, it took 2.11 ± 0.01 µM to reach half-maximal inhibition on EeAChE (IC50). On eqBuChE, this molecule gave a half-maximal inhibitory concentration (IC50) of 6.69 ± 0.1 µM. In addition, the inhibition at 10 µM at hAChE (at 10 μM, Table 2 footnote b) is below 50%. Besides, the ORAC in data set [1] was found to be 3.85±0.42 TE. Also, in the data set on SH-SY5Y cells [2] (compound 3 µM), the “O/R (%) neuroprotection” value stood at 16.50 ± 0.07%. For the same molecule, the “O/R (%) neuroprotection” value in the data set on SH-SY5Y cells [2] (compound 10 µM) is reported as “np”. Moreover, in the data set on SH-SY5Y cells [3] (compound 3 µM), the “Aβ1–40 (%) neuroprotection” value is recorded as 25.10 ± 0.06 %. Further, the “Aβ1–40 (%) neuroprotection” value in the data set with SH-SY5Y cells [3] (compound 10 µM) is given as 4.1 ± 0.04%.

Turning to `COc1ccc2[nH]cc(CCNC(C)=O)c2c1` [Melatonin, melatonin], the “O/R (%) neuroprotection” value is 50.1 ± 3.42 % in the data set on SH-SY5Y cells [7] (compound 1 µM) and 59.1 ± 4.50 % in the data set on SH-SY5Y cells [7] (compound 3 µM). In addition, the “Aβ1–40 (%) neuroprotection” value with SH-SY5Y cells [8] (compound 1 µM) was 35.5 ± 4.1 %; in the data set with SH-SY5Y cells [8] (compound 3 µM), 60.2 ± 3.57 %.
